From PubChem BioAssay AID651569 (Sanford-Burnham Center for Chemical Genomics, 2012)
Active and inactive are the calls of the source. How the calls were made is not given here.

The compounds below were run on luminescent cytotoxicity (cell viability) counter-screen (assay: cytotoxicity of Gli-SUFU antagonist hits, dose response, cytotoxicity control for Gli-SUFU antagonist project, cell-based, luminescence, uHTS hits (AID 651569);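 further: compound exposure lasted overnight before the viability readout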).
`CCOc1ccc(-n2c(O)c(/C=N/Nc3nc(C)cc(C)n3)c3ccccc3c2=O)cc1` was tested, and the IC50 was > 20 µM (inactive).
For `Cc1cccc(C)c1NC(=S)N(CCN1CCCCCC1)Cc1ccco1`, the IC50 was > 20 µM (inactive).
With `Cc1ccsc1CNc1ncnc2ccc(-c3c(C)noc3C)cc12` the IC50 was > 20 µM (inactive).
With `CC1CCCCC1NS(=O)(=O)c1ccc(S(=O)(=O)NCc2ccncc2)cc1` (stereo unspecified) the IC50 was > 20 µM (inactive).
For `O=S(=O)(NCc1ccncc1)c1ccc(S(=O)(=O)NCC2CCCO2)cc1` (stereo unspecified), the IC50 was > 20 µM (inactive).
With `COc1ccc(C(=O)C[n+]2cc(-c3ccc(OC)cc3)n3c2CCCC3)cc1` the IC50 was > 20 µM (inactive).
In the case of `C[n+]1c2n(c3ccccc31)N=C(c1ccc(-c3ccccc3)cc1)CS2`, the IC50 is reported as > 20 µM (inactive).
`O=C(c1ccc(C(F)(F)F)cc1)C1CCCN(Cc2ccncc2)C1` (stereo unspecified) showed an IC50 of 18.2 µM.
For `CN(Cc1ccc(OCC(O)CN2CCCCC2)cc1)Cc1ccnc2ccccc12` (stereo unspecified), the IC50 was > 20 µM (inactive).
In the case of `COc1ccc(N2CCN(c3ncnc4c3[nH]c3ccccc34)CC2)cc1`, the IC50 is reported as > 20 µM (inactive).
In the case of `Cc1cc(Br)c(S(=O)(=O)NCc2ccncc2)cc1C`, the IC50 is reported as > 20 µM (inactive).
`COc1cc(C(=O)NC2CCN(C)CC2)ccc1Nc1ncc2c(n1)N(C1CCCCC1)CCC(=O)N2C` showed an IC50 of 15.7 µM.
Compound `CCOP(=O)(CCP(=O)(OCC)OCC)OCC.C[CH2][Sn]([Cl])([Cl])[CH2]C` has an IC50 of 12.6 µM.
In the case of `O=C(N[C@@H]1C/C=C\C[C@@H](CC(=O)N(CCO)Cc2ccccc2)C(=O)NCCOC1=O)OCC1c2ccccc2-c2ccccc21`, the IC50 is reported as > 20 µM (inactive).
`O=C(NC(c1cccnc1)C(F)(F)F)c1cc(COc2ccc3c(c2)CCCC3)on1` (stereo unspecified) was tested, and the IC50 was > 20 µM (inactive).
In the case of `Cc1nnsc1C(=O)Nc1ccc(S(=O)(=O)N2CCC(C)CC2)cc1`, the IC50 is reported as > 20 µM (inactive).
In the case of `O=C(Nc1ccc(C(F)(F)F)cc1)C1CCN(S(=O)(=O)c2ccc(N3CCCC3=O)cc2)CC1`, the IC50 is reported as > 20 µM (inactive).
`CCCCCCn1c(=O)c(C(=O)Nc2cnccn2)c(O)c2ccccc21` was tested, and the IC50 was > 20 µM (inactive).
For `NC(=O)c1ccccc1OCC(=O)N1CCC(Cc2ccccc2)CC1`, the IC50 was > 20 µM (inactive).
`Cc1nnsc1C(=O)NC1CCCc2c1cnn2-c1ccc(F)cc1F` (stereo unspecified) was tested, and the IC50 was > 20 µM (inactive).
With `CCCOc1ccccc1N/C(=N/c1nc(C)cc(C)n1)NC(=O)COc1ccc(OC)cc1` the IC50 was > 20 µM (inactive).
`O=C(c1ccc(Cl)cc1)N1CCN(c2ccnc3cc(Cl)ccc23)CC1` was tested, and the IC50 was > 20 µM (inactive).
With `C=CCOc1nc2c(c(=O)n(C)c(=O)n2C)n1Cc1ccc(Cl)cc1Cl` the IC50 was > 20 µM (inactive).
`Cc1nc2ccccc2c2oc(C(=O)N3CCN(C4CCCCC4)CC3)cc12` was tested, and the IC50 was > 20 µM (inactive).
Compound `CCc1nc(N)nc(N)c1-c1ccc(N(C)Cc2ccccc2)c([N+](=O)[O-])c1` has an IC50 of 18.4 µM.
In the case of `CN1/C(=C\C=Nc2ccccc2)C(C)(C)c2ccccc21`, the IC50 is reported as > 20 µM (inactive).
For `CCOc1ccc(-n2c(-c3ccc(Cl)cc3)c[n+]3c2SCC3)cc1`, the IC50 was 19 µM.
With `CCc1ccccc1NC(=S)N=Nc1c(O)n(C)c2ccc(S(=O)(=O)N3CCOCC3)cc12` the IC50 was > 20 µM (inactive).
In the case of `O=C(N[C@@H]1C/C=C\C[C@H](CC(=O)N(CCO)Cc2ccccc2)C(=O)N[C@@H](Cc2c[nH]c3ccccc23)COC1=O)OCC1c2ccccc2-c2ccccc21`, the IC50 is reported as > 20 µM (inactive).
In the case of `C(#Cc1ccccc1)C[N+]1(CC#Cc2ccccc2)CCCC1`, the IC50 is reported as > 20 µM (inactive).
Compound `COc1ccc(CN2CCC(C(=O)Nc3ccc(Oc4cccnc4)cc3)CC2)c(C)c1C` has an IC50 of 19.5 µM.
In the case of `CCOc1ccc2[nH]c3c(N4CCN(C(=O)c5ccco5)CC4)ncnc3c2c1`, the IC50 is reported as > 20 µM (inactive).
For `CCN(CC)S(=O)(=O)c1ccc(C)c(NC(=S)N2CCN(Cc3ccc4c(c3)OCO4)CC2)c1`, the IC50 was > 20 µM (inactive).
For `COc1ccc(NC(=S)N2CCC(Cc3ccccc3)CC2)cc1`, the IC50 was > 20 µM (inactive).
`CCCCCCCNC1=CC(=O)CC(c2ccccc2)C1` (stereo unspecified) gave an IC50 of 16.5 µM.
With `Clc1ccc(-c2cn(-c3ccc(Cl)cc3)c3[n+]2CCCCC3)cc1` the IC50 was > 20 µM (inactive).
In the case of `CC[C@@H](O)C[C@H]1CCC[C@@]2(C[C@@H]3OC(=O)/C=C/[C@@](C)(O)[C@@H](O)[C@H](C)[C@@H](O)[C@H](OC4CCC(N(C)C)C(C)O4)[C@@H](O)[C@](C)(O)CCCCC/C=C/[C@@H]4CC(C)(C)O[C@@]4(O)C[C@H](O2)[C@H]3C)O1` (stereo partly specified), the IC50 is reported as > 20 µM (inactive).
`CCn1c(/C=C/Nc2ccccc2)[n+](CC)c2cc(Cl)c(Cl)cc21` showed an IC50 of 9.98 µM.
Compound `O=C1N/C(=C\c2ccc(O)cc2)C(O)=C1C=NCc1ccccc1` has an IC50 of 4.41 µM.
In the case of `CC(C)CC(NC(=O)CCCNC(=O)CCC(=O)OC1O[C@H]2OC3(C)CC[C@H]4[C@H](C)CCC(C1C)C24OO3)C(=O)O` (stereo partly specified), the IC50 is reported as > 20 µM (inactive).
In the case of `Cc1nc2ccccc2n1Cc1ccc(Br)cc1`, the IC50 is reported as > 20 µM (inactive).
In the case of `CCCn1c2c(c(=N)c3c1CCC3)CCCC2`, the IC50 is reported as > 20 µM (inactive).
`C[n+]1c2n(c3ccccc31)N=C(c1ccccc1)CS2` was tested, and the IC50 was > 20 µM (inactive).
With `CCC(C)NC(=O)CCC(=O)OC1O[C@H]2OC3(C)CC[C@H]4[C@H](C)CCC(C1C)C24OO3` (stereo partly specified) the IC50 was > 20 µM (inactive).
For `CC[N+](CC)(CC#Cc1ccccc1)CC#Cc1ccccc1`, the IC50 was > 20 µM (inactive).
With `C=CCn1c(O)c(N=NC(=S)Nc2cccc(C)c2)c2ccccc21` the IC50 was > 20 µM (inactive).
`CCCn1c(SCC(=O)Nc2nc(-c3ccc(OC)cc3)cs2)nc2c1c(=O)n(C)c(=O)n2C` was tested, and the IC50 was > 20 µM (inactive).
`O=C(NC1CCCC1)c1cc(COc2ccc3ncccc3c2)on1` was tested, and the IC50 was > 20 µM (inactive).
For `CC(C)(C)c1ccc(CN2C3=NCCCN3c3ccccc32)cc1`, the IC50 was 19.1 µM.
In the case of `C#CC[N+](C)(C)CCCCCCCCCCCC`, the IC50 is reported as > 20 µM (inactive).
`FC(F)Oc1ccc(-c2c[n+]3c(n2-c2ccccc2)CCCCC3)cc1` was tested, and the IC50 was > 20 µM (inactive).
With `Cc1ccc(C)c(N2CC(O)(c3cccs3)[N+]3=C2CCCC3)c1` (stereo unspecified) the IC50 was > 20 µM (inactive).
In the case of `CN(C)CCn1c2ccccc2c2nc3ccc([N+](=O)[O-])cc3cc21`, the IC50 is reported as > 20 µM (inactive).
With `Cc1ccc(C(=O)N2CCN3C(=O)c4ccccc4C23c2ccc(Cl)cc2)cc1` (stereo unspecified) the IC50 was > 20 µM (inactive).
In the case of `COc1ccccc1CCNC(=O)c1cc(-c2ccncc2)nc2ccc(Br)cc12`, the IC50 is reported as > 20 µM (inactive).
`Cn1nc(CC(=O)NCc2ccc(C(F)(F)F)cc2)c2ccccc2c1=O` was tested, and the IC50 was > 20 µM (inactive).
With `N=c1c2c(n(Cc3ccc(F)cc3)c3c1CCC3)CCCC2` the IC50 was > 20 µM (inactive).
`Cc1cc(C)nc(SCC(=O)Nc2ccc(N3CCOCC3)c(Cl)c2)n1` was tested, and the IC50 was > 20 µM (inactive).
`CC(C)CCOC(=O)C[N+](C)(C)CCOC1CC2CCC1(C)C2(C)C` (stereo unspecified) was tested, and the IC50 was > 20 µM (inactive).
With `CC[N+](C)(CC)CCC(c1ccccc1)C1CCCCC1` (stereo unspecified) the IC50 was > 20 µM (inactive).
With `O=C(N[C@@H]1C/C=C\C[C@H](CC(=O)N(CCO)Cc2ccccc2)C(=O)NC[C@@H](c2ccccc2)OC1=O)OCC1c2ccccc2-c2ccccc21` the IC50 was > 20 µM (inactive).
In the case of `O=C(Cn1cc(C(=O)C2CC2)c2ccccc21)Nc1ccccc1Cl`, the IC50 is reported as > 20 µM (inactive).
`CCCCCCCN1C2=NCCCN2c2ccccc21` was tested, and the IC50 was > 20 µM (inactive).
For `O=C(c1cc2nc(-c3ccc(F)cc3)cc(C(F)(F)F)n2n1)N1CCCCC1c1cccnc1` (stereo unspecified), the IC50 was > 20 µM (inactive).
`Brc1ccc(-[n+]2c(-c3ccccc3)cc(-c3ccccc3)cc2-c2ccccc2)cc1` was tested, and the IC50 was > 20 µM (inactive).
For `Cc1cc(Nc2ccc([N+](=O)[O-])cc2)c2ccccc2n1`, the IC50 was > 20 µM (inactive).
